Results: ChEMBL document CHEMBL1201862, “PubChem BioAssay data set” (2004)
The source made the active and inactive calls.

Legend:
[1] = COV362 cell viability loss – plate reader, dry powder, SA12, cytotoxicity control for PAX8 inhibitor project, dose response (AID 743144); format: functional, cell-based
[2] = PAX8-dependent cell viability loss – plate reader, dry powder, dose response (AID 743049); format: functional, cell-based
[3] = inhibitors acting on PAX2 in cells – cell-based, plate reader, dry powder samples, selectivity assay for PAX8 inhibitor project, dose response (AID 743048); format: functional;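 further: HEK293 cells carrying a WT1 promoter luciferase reporter driven by expressed Pax2; potency is for inhibition of Pax2 driven reporter signal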
[4] = OV-90 cell viability loss – plate reader, dry powder, SA8, PAX8 inhibitor project, dose response (AID 743149); format: functional, cell-based
[5] = OVCAR-3 cell viability loss – plate reader, dry powder samples, PAX8 inhibitor project, dose response (AID 743044); format: functional, cell-based
[6] = IGROV1 cell killing – plate reader, dry powder samples, PAX8 inhibitor project, dose response (AID 743043); format: functional, cell-based; conditions: IGROV-1
[7] = PAX5 cellular inhibition readout – cell-based, plate reader, dry powder samples, selectivity assay for PAX8 inhibitor project, dose response (AID 743047); format: functional;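 further: HEK293 cells carrying a Pax5 driven CD19 promoter luciferase reporter; potency of inhibitors that lower reporter luminescence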
[8] = OVCAR4 cell viability loss – plate reader, dry powder, SA11, cytotoxicity control for PAX8 inhibitor project, dose response (AID 743150); format: functional, cell-based; conditions: OVCAR-4
[9] = COV434 cell viability loss – plate reader, dry powder, SA7, cytotoxicity control for PAX8 inhibitor project, dose response (AID 743145); format: functional, cell-based
[10] = general cell-killing toxicity readout – plate reader, dry powder samples, cytotoxicity control for PAX8 inhibitor project, dose response (AID 743021); format: functional, cell-based
[11] = inhibition of fibronectin matrix deposition – AH1F cells, Alexa488-fibronectin fluorescence, cherry-pick, set 2, dose response (AID 1117283); format: functional, cell-based
[12] = viability loss in HepG2 hepatoma cells – cell-based, cherry-picks, set 5, cytotoxicity control, dose response (AID 1053118); format: functional
[13] = P. falciparum Dd2 growth inhibitors, dose response, SYBR Green, cherry-picked samples (AID 1159567); format: functional, cell-based
[14] = toxicity to human hepatoma HepG2 cells – cell-based, cherry-picked samples, cytotoxicity control, dose response (AID 1159577); format: functional
[15] = YAP1 overexpression rescue of CTGF inhibition – DLD1 cells, RT-qPCR, cherry-pick, mechanism study for YAP1 pathway inhibitor project, dose response (AID 1053127); format: functional, cell-based; conditions: DLD-1
[16] = CTGF mRNA reduction in DLD1 cells – cell-based, DLD1 colon cancer, RT-qPCR, cherry-pick, dose response (AID 1053122); format: functional; conditions: Cancer cell lines
[17] = target: NAD-dependent protein deacylase sirtuin-5, mitochondrial (Homo sapiens, UniProt Q9NXA8); assay: blockers of sirtuin-5 peptide desuccinylation – biochemical, fluorescence imaging, cherry-pick, set 6, dose response (AID 720597)
[18] = viability loss in MITF-independent A375 cells – cell-based, CellTiter-Glo luminescence, dry powder, set 2, counter-screen for MITF inhibitor project, dose response (AID 624489); format: functional; conditions: A-375;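 further: actives are compounds lowering A375 viability meaning general cytotoxicity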
[19] = cytotoxicity in MITF-independent A375 cells – cell-based, CellTiter-Glo luminescence, dry powder, set 4, counter-screen for MITF inhibitor project, dose response (AID 624364); format: functional; conditions: A-375;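 further: A375 melanoma cells are MITF independent so this is a counter screen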
cells = conditions: HEK293
[20] = target: T1, Low molecular weight phosphotyrosine protein phosphatase (Homo sapiens, UniProt P24666); assay: inhibition of LMPTP-A enzymatic activity – biochemical, OMFP substrate, fluorescence intensity, set 2, dose response (AID 743307); format: functional
T1 sequence (P24666 whole entry): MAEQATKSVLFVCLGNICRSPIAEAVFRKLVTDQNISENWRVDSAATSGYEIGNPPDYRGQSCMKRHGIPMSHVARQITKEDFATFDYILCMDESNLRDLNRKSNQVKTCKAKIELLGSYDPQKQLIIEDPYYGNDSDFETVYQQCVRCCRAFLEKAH

[21] = target: T1, Low molecular weight phosphotyrosine protein phosphatase; assay: inhibition of human LMPTP enzyme activity – biochemical, absorbance, pNPP substrate, LMPTP-A isoform, set 2, orthogonal assay, dose response (AID 743308); format: functional
[22] = target: G-protein coupled receptor 183 (Homo sapiens, UniProt P32249); assay: SAR confirmation of small molecule antagonists of the EBI2 receptor via a luminescent beta-arrestin assa.; format: functional
[23] = HCT116 cell viability decrease, GSK3B pretreatment – CellTiter-Glo, IC50, dose response (AID 1117339); format: functional; conditions: HCT-116
[24] = cytotoxicity toward HT-29 cells – cell-based, CellTiter-Glo luminescence, IC50, dose response (AID 1117330); format: functional
[25] = cytotoxicity toward HCT116 cells – cell-based, CellTiter-Glo luminescence, IC50, dose response (AID 1117332); format: functional; conditions: HCT-116
[26] = RKO cell viability reduction, dose response, CellTiter-Glo luminescence (AID 1117322); format: functional
[27] = rise of 2N DNA cells, HeLa – IC50, dose response (AID 1117349); format: functional, cell-based
[28] = Reduced DLD-1 viability, concentration-response, CellTiter-Glo luminescence (AID 1117352); format: functional
[29] = CellTiter-Glo luminescence survival assay, SW480 colon tumor line, concentration-response curve, half-maximal inhibitory concentration (AID 1117338); format: functional
[30] = SNU-C1 cell viability reduction, dose response, CellTiter-Glo luminescence (AID 1117323); format: functional, cell-based
[31] = rise of 4N DNA cells, HeLa – IC50, dose response (AID 1117351); format: functional, cell-based
[32] = cytotoxicity toward Colo320 cells – cell-based, CellTiter-Glo luminescence, IC50, dose response (AID 1117334); format: functional; conditions: COLO 320

NAD-dependent protein deacylase sirtuin-5, mitochondrial, sequence (Q9NXA8 whole entry): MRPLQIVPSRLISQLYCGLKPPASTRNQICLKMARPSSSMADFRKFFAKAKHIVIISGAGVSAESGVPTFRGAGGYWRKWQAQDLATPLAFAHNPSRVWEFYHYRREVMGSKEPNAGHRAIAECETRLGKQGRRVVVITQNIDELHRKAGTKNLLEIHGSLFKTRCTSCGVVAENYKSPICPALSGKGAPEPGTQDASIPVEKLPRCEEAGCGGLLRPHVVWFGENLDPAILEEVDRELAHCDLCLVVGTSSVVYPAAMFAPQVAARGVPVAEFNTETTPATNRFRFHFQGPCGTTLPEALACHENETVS
G-protein coupled receptor 183, sequence (P32249 whole entry): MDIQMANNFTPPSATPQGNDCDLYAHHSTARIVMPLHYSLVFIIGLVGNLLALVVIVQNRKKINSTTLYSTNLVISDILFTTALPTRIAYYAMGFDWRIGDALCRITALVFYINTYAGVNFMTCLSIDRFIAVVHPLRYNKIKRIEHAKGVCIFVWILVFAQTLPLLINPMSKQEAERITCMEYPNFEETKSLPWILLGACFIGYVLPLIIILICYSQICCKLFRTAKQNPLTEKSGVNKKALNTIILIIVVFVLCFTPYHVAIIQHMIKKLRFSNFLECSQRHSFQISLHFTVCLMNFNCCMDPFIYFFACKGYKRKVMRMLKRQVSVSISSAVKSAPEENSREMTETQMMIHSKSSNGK

SMILES: CN(C)CCN(C(=O)/C=C/c1cccs1)c1nc2c(F)cc(F)cc2s1
- AC50 [1]: 21.2 µM (active)
- AC50 [2]: 19.4 µM (active)
- AC50 [3]: > 100 µM (inactive)
- AC50 [4]: 32.8 µM (active)
- AC50 [5]: 29.1 µM (active)
- AC50 [6]: 34.3 µM (active)
- AC50 [7]: > 100 µM (inactive)
- AC50 [8]: 31.2 µM (active)
- AC50 [9]: 44.9 µM (active)
- AC50 [10]: 11.6 µM (active)

SMILES: COc1ccc([N+](=O)[O-])cc1NS(=O)(=O)c1ccc(C(=O)N2CCCC2)cc1
- AC50 [11]: 51 µM (active)
- AC50 [12]: > 52 µM (inactive)

SMILES: C[C@@H]1CN([C@H](C)CO)C(=O)c2ccccc2-c2ccccc2CO[C@@H]1CN(C)Cc1ccc(Oc2ccccc2)cc1
- AC50 [13]: 6.67 µM (active)
- AC50 [14]: 19.8 µM (active)
- AC50 [15]: 7.84 µM (active)
- AC50 [16]: 6.79 µM (active)

SMILES: COCC(=O)N1C[C@H](C)[C@H](OC)CN(C)C(=O)c2cc(NC(=O)C3CCC3)ccc2OC[C@@H]1C
- AC50 [17]: 13.2 µM (active)

SMILES: CCN1CCN(C2=C(NS(=O)(=O)c3ccc(Br)s3)C(=O)c3ccccc3C2=O)CC1
- AC50 [18]: > 70 µM (inactive)
- AC50 [19]: > 70 µM (inactive)

SMILES: Fc1ccc2c(c1)[nH]c(=S)n2CCOc1ccccc1
- AC50 (cells): > 52 µM (inactive)

SMILES: CCCCNc1nc(-c2ccccc2)nc2ccccc12
- IC50 [20]: 23.2 µM (inactive)
- IC50 [21]: > 80 µM (inactive)

SMILES: COc1ccc(/C=C/C(=O)N2CCN(S(=O)(=O)c3ccc(Br)cc3)CC2)cc1
- IC50 [22]: 0.00958 µM (active)

SMILES: CCC(=O)c1ccc(O)cc1 [PAROXYPROPIONE]
- IC50 [23]: 6.25 µM (inactive)
- IC50 [24]: > 20 µM (inactive)
- IC50 [25]: > 20 µM (inactive)
- IC50 [26]: 7.8 µM (inactive)
- IC50 [27]: > 10 µM (inactive)
- IC50 [28]: 6.67 µM (inactive)
- IC50 [29]: 4.1 µM (active)
- IC50 [30]: > 20 µM (inactive)
- IC50 [31]: > 10 µM (inactive)
- IC50 [32]: > 20 µM (inactive)
